This is an account of results in paper PMC10028264, “Synergistic antifungal interaction of N-(butylcarbamothioyl) benzamide and amphotericin B against Cryptococcus neoformans” (Frontiers in Microbiology, 2023).

Values after ≈ are worked out from the molar mass of the structure shown.

Series [1] has as its system Cryptococcus neoformans biofilm. In words: Checkerboard assay on 72-h biofilms. Type of series: cell-based. To be noted: 72-h biofilm. The method, then: The antifungal effect of BTU-01 combined with AmB was evaluated using the checkerboard broth microdilution assay, according to [Scott et al. (1995)]. […] The Fractional Inhibitory Concentration (FIC) of each compound was determined by the ratio of the MIC obtained when the compounds were tested in combination and the MIC of the compounds tested individually. […] Untreated and treated biofilms were incubated at 37°C for further 24 h, and then washed with saline. The biofilm viability was analyzed by the MTT reduction assay as described above. […] The checkerboard assays were performed to analyze the effect of the combination with BTU-01 and AmB on 72-h biofilms. The results of the combination were interpreted using the FICI as described previously.

The next series is described as follows: Hemolysis assay. Type of series: cell-based, human. The following applies: human, human erythrocyte suspension (3%); range over tested concentrations; compound alone; 3 h at 37°C; read-out: percentage of hemolysis. As to the method:
(§1) The cytotoxicity of BTU-01 (1.95–1000.0 μg/mL) alone and combined with AmB (0.015–16.0 μg/mL) was evaluated on human erythrocytes. Blood from a healthy donor was collected according to the Declaration of Helsinki principles, defibrinated and an erythrocytes suspension (3%) was prepared in 5% glycosylated saline. A total of 100 μL of the erythrocytes suspension was incubated for 3 h at 37°C in wells of U-bottom 96-well polystyrene plates containing different concentrations of the compounds. Wells without the compounds and with 1% Triton X-100 were used as negative and positive hemolysis controls, respectively. The OD of the supernatant was determined at 550 nm with a microtiter plate reader (Synergy HT, BioTek, USA). The percentage of hemolysis was calculated by comparison with the positive control ([Izumi et al., 2012]).
(§2) The concentration of BTU-01 capable of causing 90% of hemolysis/cytotoxicity was used to calculate the selectivity index (SI) using the following equation: SI = CC90/MIC.

The subject of series [2] is C neoformans mature biofilms. More on the design: method as in Martinez and Casadevall, 2006. The following applies: strains ATCC 24067, ATCC B3501 and H99; ref Martinez and Casadevall, 2006; cited from earlier work.
The target in another series is T1, cryptococcal urease (Cryptococcus neoformans, UniProt O13465).
T1 construct: 100 μL of crude protein extract; endogenous in cells; host or cells: Cryptococcus neoformans ATCC 34872, crude lysate (glass-bead lysis, supernatant)
T1 sequence (O13465 whole entry): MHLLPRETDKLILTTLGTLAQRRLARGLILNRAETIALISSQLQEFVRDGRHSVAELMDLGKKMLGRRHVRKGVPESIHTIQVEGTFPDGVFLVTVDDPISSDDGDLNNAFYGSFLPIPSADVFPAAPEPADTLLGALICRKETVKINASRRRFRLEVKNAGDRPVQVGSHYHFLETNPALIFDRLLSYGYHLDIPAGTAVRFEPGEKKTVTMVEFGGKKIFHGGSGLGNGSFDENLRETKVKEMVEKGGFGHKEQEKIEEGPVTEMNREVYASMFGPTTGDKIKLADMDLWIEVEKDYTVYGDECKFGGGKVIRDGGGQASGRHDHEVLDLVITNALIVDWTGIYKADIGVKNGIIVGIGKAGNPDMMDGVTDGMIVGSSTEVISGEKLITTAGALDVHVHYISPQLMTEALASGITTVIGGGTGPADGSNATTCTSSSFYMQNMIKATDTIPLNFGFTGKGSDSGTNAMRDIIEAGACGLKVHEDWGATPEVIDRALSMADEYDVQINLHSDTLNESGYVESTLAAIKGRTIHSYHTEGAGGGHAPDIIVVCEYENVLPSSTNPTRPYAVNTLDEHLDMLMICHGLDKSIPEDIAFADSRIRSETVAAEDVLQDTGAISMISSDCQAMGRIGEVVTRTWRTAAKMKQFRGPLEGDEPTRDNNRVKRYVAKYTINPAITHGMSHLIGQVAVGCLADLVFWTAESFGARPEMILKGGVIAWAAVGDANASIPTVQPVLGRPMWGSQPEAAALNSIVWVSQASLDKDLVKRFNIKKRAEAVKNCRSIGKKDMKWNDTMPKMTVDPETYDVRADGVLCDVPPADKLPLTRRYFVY
In words: Urease activity inhibition test (indophenol method, crude protein extract). Format: biochemical. The method, then:
Five colonies of C. neoformans were suspended in 100 μL SD broth and inoculated onto SD agar using a Drigalski spreader, and the culture was incubated at 37°C for 48 h. Afterward, all fungal growth was gently scraped and transferred to conical flasks containing 300 mL of SD broth and incubated with shaking (150 rpm) at 37°C for further 48 h. Cells were centrifuged (6,000 × g, 10 min) and washed three times with distilled water. The protein extraction was performed according to [Moller et al. (2016)] with modifications. Briefly, fungal cells were resuspended in 10 mL of chilled lysis buffer consisting of 100 μM Nα-tosyl-L-lysine chloromethyl ketone hydrochloride (TLCK), 1 mM EDTA, 10% glycerol and 0.15 M phosphate-buffered saline (PBS), pH 8.0. […] Then, the cell debris was removed by centrifugation (6,000 × g, 15 min, 4°C), and the protein content of the resulting supernatant was quantified using the […].
The inhibition of urease activity was evaluated by the indophenol method ([Weatherburn, 1967]). […] The reaction mixtures were incubated for further 10 min at 45°C, and the optical density (OD) was measured at 630 nm. Urease inhibition percentage (I%) was calculated according to the equation: I% = 100–(ODBTU–01/ODcontrol) × 100. […]

Series [3] is described as follows: Cytotoxicity, MTT reduction assay. The following applies: 24 h, MTT. Format: cell-based. The method, then:
(§3) The effect of BTU-01 was analyzed on mammalian epithelial cell lines [HEp-2 CCL-23™ (ATCC), LLC-MK2, VERO CCL81 and HeLa (Merck, Brazil)], and the cytotoxicity was evaluated as described by [Longhi et al. (2016)] with modifications. Briefly, cells were cultured in Dulbecco’s Modified Eagle’s medium (DMEM) supplemented with 10% fetal bovine serum (Invitrogen, Brazil), 2 mM L-glutamine, 100 IU/mL penicillin, 100 μg/mL streptomycin, 1% tylosin in flat-bottomed 96-well microtiter plates, in 5% CO2 at 37°C for 48 h. Then, the medium was carefully removed and fresh medium containing twofold serially diluted BTU-01 (0.095–500.0 μg/mL) was added. The cells were incubated for further 24 h under the same conditions. Cell viability was analyzed by the MTT reduction assay according to the manufacturer’s recommendation. The concentration of the compound needed to inhibit the viable cells up to 50 and 90% by regression analysis corresponds to the 50% (CC50) and 90% (CC90) cytotoxic concentrations, respectively.
as §2

Another series has as its system HeLa. The series is described as follows: Cytotoxicity, MTT reduction assay. To be noted: SI = CC90/MIC, MIC 62.5 μg/mL. Type of series: cell-based. The method, then: as §3, §2
(In general: Formazan colour is commonly taken as a measure of viable cells.)

Another series deals with LLC-MK2. The series is described as follows: Cytotoxicity, MTT reduction assay. Type of series: cell-based. The following applies: SI = CC90/MIC, MIC 62.5 μg/mL. The method, then: as §3, §2
A further series has as its system VERO-CCL81. The series is described as follows: Cytotoxicity, MTT reduction assay. The following applies: SI = CC90/MIC, MIC 62.5 μg/mL. Type of series: cell-based. As to the method: as §3, §2
The nature of series [4]: Cytotoxicity, MTT reduction assay, ranges over all cell lines. Format: cell-based. To be noted: different cell lines. The method, then: as §3, §2
The test system of a further series is human erythrocytes. In words: Hemolysis assay. Format: cell-based. To be noted: estimated from the highest concentration tested; all cryptococcal strains. As to the method:
as §1, §2

The mark [5] stands for this setting: African green monkey, VERO CCL81 cells.

Consider `C[C@@H]1[C@H](O)[C@@H](C)/C=C/C=C/C=C/C=C/C=C/C=C/C=C/[C@H](O[C@@H]2O[C@H](C)[C@@H](O)[C@H](N)[C@@H]2O)C[C@@H]2O[C@](O)(C[C@@H](O)C[C@@H](O)[C@H](O)CC[C@@H](O)C[C@@H](O)CC(=O)O[C@H]1C)C[C@H](O)[C@H]2C(=O)O` [Amphotericin B, amphotericin B], for which the “reduction in SMIC80 value in combination” value in [1] (1172 strain) and in series [1] (ATCC 34872) was 8 fold in each case. The hemolysis at 3 h in “Hemolysis assay” lay within 0.52 to 1.34%. Moreover, the “concentration inhibiting metabolic activity of mature biofilms” value in [2] is reported as “higher than 2.0 μg/mL”.

On to `CCCCNC(=S)NC(=O)c1ccccc1` [BTU-01, N-(butylcarbamothioyl) benzamide], for which the IC50 (as a rule, the concentration that gives 50% inhibition) against cryptococcal urease is 226 µM. Also, the “reduction in SMIC80 value in combination” value in [1] (1172 strain) is recorded as 128 fold; in [1] (ATCC 34872) it was 16 fold. In addition, the CC50 (in general, the concentration giving 50% cytotoxicity) at 24 h in series [3] (setting [5]) is 121 µg/mL (≈ 513 µM); in series [3] (human, HeLa cells), 83.8 µg/mL (≈ 355 µM); in [3] (rhesus monkey, LLC-MK2 cells), 71.7 µg/mL (≈ 303 µM); in [4] (read-out: CC50, range over cell lines), 61 to 121 µg/mL (≈ 258 to 513 µM). The CC90 at 24 h is 244 µg/mL (≈ 1030 µM) in series [3] (setting [5]); 154 µg/mL (≈ 650 µM) in [3] (human, HeLa cells); 143 µg/mL (≈ 603 µM) in series [3] (rhesus monkey, LLC-MK2 cells); 143 to 244 µg/mL (≈ 603 to 1030 µM) in [4] (read-out: CC90, range over cell lines). Further, the SI was 2.5 in the series with HeLa, 2.3 in the series with LLC-MK2, 3.9 in the series on VERO-CCL81 and “greater than 16” in the series with human erythrocytes. The hemolysis at 3 h in “Hemolysis assay” is 0 to 3.18%.
